Results from patent US5688769A, “Treatment method” (Uclaf; Roussel, priority 1979, dated 1997).

What was measured:
ovarian steroidogenosis = assay: Inhibitory activity on ovarian steroidogenesis in women; assay type: in vivo; conditions: for reduction of seric levels of progesterone as compared to the controls: typical subject (FIGS. 3A-3D)
Protocol: The inhibitory activity of D Ser (Tbu)^6 or Gly^10 LH-RH ethylamide on ovarian steroidogenosis in women was determined on 6 women aged 26 to 35 years with normal and regular menstrual cycles and without prior endocrinal or gynecological problems. […] […] Daily blood samples were taken between 4 and 6 P.M. to measure seric levels of LH, FSH, progesterone and estradiol which were determined by radioimmuno-logic tests with double antibodies. The antibodies to measure LH and FSH were furnished by the National Pituitory Agency of N.I.H. of Bethesda, Md.
Estradiol and progesterone were measured with highly specific antibodies developed against 7-(O-carboxymethyl)-oxime of estradiol and 12-(O-carboxymethyl)-oxime of progesterone, respectively [3H] 17β-estradiol and ^125 I-progesterone-12-[0-carboxymethyl)-oxime]used as tracers. The serum was extracted with benzene and the steroids were separated with a LH 20 column before the determination. The radioimmunological results were exploited by the program derived from model II of Rodbard and Lewald as in Example 1 and the statistical significance was measured by the multiple level test of Ducan-Kramer of Example 1. The results are shown in the graphs of sheets 1 to 16 of the Figures.

[1] = tested on: testicular steroidogensis; assay: Inhibitory activity against testicular steroidogenesis in men in good health, single intranasal dose; assay type: in vivo; conditions: human, single intranasal dose 500 μg
Protocol: The said product was administered intranasally at a dose of 500 μg in a few drops of distilled water at 8 A.M. on the third day of the test. For 2 days prior to the treatment and for 6 days after the treatment, samples of blood were taken daily at 8 A.M., 3 P.M. and 10 P.M. On the day of administration of the LH-RH agonist, blood samples were taken at 11 A.M. and 6 P.M.
The seric concentrations of LH and FSH were measured by radioimmuno-logic dosages with double antibodies and the antibodies for measuring LH and FSH were furnished by the National Pituitary Agency of N.I.H. in Bethesda, Md. The seric concentrations of steroids was measured by radioimmuno-logic dosages in which one ml of serum was extracted with ether and the steroids were separated on a LH-20 column before measuring with radioimmuno-logic dosages. The radioimmuno-logic dosage results were determined by a program derived from model II of Rodbard et al [Second Karolinska Symposium on Research Methods in Reproductive Endocrinology, Diezfalusky Editor, Copenhague (1970), p. 79-103]. The statistical significance was determined by the "multiple level test" of Duncan-Kramer [Kramer, Biometrics, Vol 12 (1956), p. 307]. The results are shown in the FIGS. 1A to 1H filed herewith.

[2] = tested on: testicular steriodogenosis; assay: Inhibitory activity on testicular steroidogenesis in a patient with prostate cancer; assay type: in vivo, human; conditions: intranasal 500 μg twice a day
Description: The results are reported in the graphs of sheet 2 of the Figures.

## CCNC(=O)[C@@H]1CCCN1C(=O)[C@H](CCCNC(=N)N)NC(=O)[C@H](CC(C)C)NC(=O)[C@@H](COC(C)(C)C)NC(=O)[C@H](Cc1ccc(O)cc1)NC(=O)[C@H](CO)NC(=O)[C@H](Cc1c[nH]c2ccccc12)NC(=O)[C@H](Cc1c[nH]cn1)NC(=O)[C@@H]1CCC(=O)N1 [D Ser (Tbu)^6 of Gly^10 LH-RH ethylamide]
Ovarian steroidogenosis; 2 cycles of treatment (FIGS. 4A-4F)
  level of seric progesterone, course: accelerated diminution
Ovarian steroidogenosis; 12 cycles of post-treatment
  level of progesterone, % of control values (pretreatment cycles = 100%): 99%
Ovarian steroidogenosis; 12 cycles of treatment
  level of progesterone, % of control values (pretreatment cycles = 100%): 46%
Ovarian steroidogenosis; all 12 treatment cycles (FIGS. 5A-5L), scale 13 to 127%
  level of progesterone reduced as compared to the controls: 46%
Ovarian steroidogenosis; first of the 2 cycles of treatment, intranasal 500 μg at 8 A.M. and 5 P.M. of one day
  reduction of seric levels of progesterone as compared to the controls: 13%
Ovarian steroidogenosis; second of the 2 cycles of treatment
  reduction of seric levels of progesterone as compared to the controls: 34%
[1]
  duration of the lessening of cyclicity and drop of seric levels of testicular steroids: 3 days
[2]
  androgenic steroids, plasmatic level: diminution
[2]; two weeks of treatment
  level of testosterone: stabilized at a very low level
